Measurements as given in patent US12503446B2, “Bromodomain inhibitors” (FORSCHUNGSZENTRUM JÜLICH GMBH, priority 2019, dated 2025).
Entries after “also recorded” stand apart in the source; their conditions may differ. Values belong to the compound of their own block, whether it stands above or below them.

Legend:
[1] = tested on: haematopoietic cell lines, erythroleukaemia and AML cell lines; assay: Inhibitory activity in haematopoietic cell lines (summary statements); format: cell-based; conditions: for activity relative to PFI-1 in haematopoietic cell lines: racemic mixtures of MF1, MF2, achiral MF3
Method: (§1) All studies with the HEL, Molm-14 and K562 cell lines mentioned (sourced from DSMZ: ACC-11, ACC-10 and ACC-777) were conducted under germ-free conditions under a sterile hood. Incubation was effected at 37° C. in an incubator at a CO2 saturation of 5%. For the passage of the suspension cells, the cells were transferred in a Falcon prefilled with PBS (phosphate buffered saline) and centrifuged at 1200 rpm for 5 min. All three cell lines were cultured in RPMI-1640 medium (Gibco, Thermo Fischer Scientific, Darmstadt, Germany) with 10% FCS and 1% penicillin streptomycin.
(§2) The viability and metabolic activity of the cells were measured by the MTT assay. Yellow, water-soluble MTT (3-([…])-2,5-diphenyltetrazolium bromide) is a tetrazolium salt which is reduced to dark blue formazan in living cells. Insoluble formazan is released by addition of isopropanol-HCl, and its intensity can be determined by photometry at a wavelength of 550 nm. Thus, the proportion of living cells is measured by comparison with a particular control sample. The cells were counted and washed with PBS, and 30 000 cells per well were sown in triplicates in a 96-well plate. For the inhibitor treatment, the stated final concentrations were used. For this purpose, 10 µl of the appropriate inhibitor dilution was introduced into the 96-well plates, and then 90 μl of cell suspension was pipetted in. The plates were incubated in an incubator for 72 h (37° C., 5% CO2). After the incubation, 10 μl of MTT solution (5 mg/ml) was applied to the wells with a multichannel pipette and thoroughly resuspended. This was followed by incubation for 4 h in the dark at room temperature. Subsequently, the cells were resuspended in 100 μl of isopropanol-HCl and lysed, and absorption at a wavelength of 550 nm was measured by photometry with a plate reader (Kayto, RT-2100C).

[2] = tested on: erythroleukaemia cell line HEL (JAK2V617F-positive); assay: MTT assay, metabolic activity of HEL cells; format: cell-based; conditions: 72 h; for effect on metabolic activity of HEL cells (in words): concentrations up to 20 μM
Method: as §1, §2
(§3) The erythroleukaemia cell line HEL (JAK2V617F-positive), the AML cell line Molm-14 and the chronic myeloid leukaemia (CML) cell line K562 (BCR-ABL-positive) were used for cell experiments.
(§4) Compounds MF1-R, MF1-S, JHS1-R and JHS1-S were dissolved in DMSO, and each was used in concentrations of 0.1 μM, 1 μM, 10 μM and 20 μM. Correspondingly, DMSO was included in each case as a control treatment, and the metabolic activity thereof was set to 100%. The HEL, Molm-14 and K562 cell lines were treated with the respective compounds in the different concentrations and, after 72 h in culture, the metabolic activity, which gives information about the growth of the cells, was determined by means of MTT [3-(4,5-dimethylthiazol-2-yl)-2,5-diphenyltetrazolium bromide] assay.

[3] = tested on: AML cell line Molm-14; assay: MTT assay, metabolic activity of Molm-14 cells; format: cell-based; conditions: 72 h; for effect on metabolic activity of Molm-14 cells (in words): concentrations up to 20 μM
Method: as §1, §2, §3, §4

[4] = tested on: proteins from the BET family; assay: Thermal shift assay (BromoMELT assay), BET family; format: binding; conditions: 10 μM, duplicates, versus DMSO control; apart from BRDT-2
Method: (§5) The experiment was conducted in duplicates at a concentration of 10 μM.

[5] = tested on: BRD2; assay: Thermal shift assay (BromoMELT assay), BRD2; format: binding; conditions: 10 μM, duplicates, versus DMSO control
Method: as §5

[6] = tested on: PBMC or CD34+ cells from healthy donors; assay: CFU assay, healthy controls; format: cell-based, human
Method: With the aid of the CFU assay, it is possible to determine the colony-forming capacity of individual cells in a semisolid methylcellulose medium (MethoCult H4434, StemCell Technologies, Cologne, Germany). The number of colonies was determined after 7-11 days.
CD34+ cells (G-CSF mobilized from stem cell donors) from healthy donors: 2×10^4 cells/ml; PBMCs from the healthy subjects: 4×10^5 cells/ml.
For this purpose, mononuclear cells (PBMC: mononuclear cells from peripheral blood) or CD34-positive stem cells (CD34+ cells) were isolated from the blood of four healthy controls and three AML or MPN patients and introduced into semisolid medium, to each of which 1 μM or 5 μM of MFS-2 or PFI-1 have been added. Individual cells in the CFU assay form cell colonies in culture after 12 days, unless the formation thereof is prevented by inhibitors.

Structure (SMILES): COc1ccccc1S(C)(=O)=Nc1ccc2c(c1)CN(C)C(=O)N2 (racemic) [MF1, rac-N-(3-methyl-2-oxo-1,2,3,4-tetrahydroquinazolin-6-yl)-S-(2-methoxyphenyl)-S-methylsulfoximine]
inhibitory activity in haematopoietic / leukaemia cell lines (in words) [1]: marked inhibitory activity; also recorded: showed inhibitory activity
activity relative to PFI-1 in haematopoietic cell lines [1]: at a comparable level to PFI-1

Structure (SMILES): CN1Cc2cc(N=S(C)(=N)c3ccccc3)ccc2NC1=O (racemic) [JHS2, rac-N-(3-methyl-2-oxo-1,2,3,4-tetrahydroquinazolin-6-yl)-N′—H—S-methyl-S-phenylsulfonediimide]
inhibitory activity in haematopoietic / leukaemia cell lines (in words) [1]: minor inhibitory activity
effect on metabolic activity of HEL cells (in words) [2]: inactive
effect on metabolic activity of Molm-14 cells (in words) [3]: inactive

Structure (SMILES): CN1Cc2cc(N=[S@](C)(=O)c3ccccc3)ccc2NC1=O [MF2-R, (R)—N-(3-methyl-2-oxo-1,2,3,4-tetrahydroquinazolin-6-yl)-S-Methyl-S-Phenylsulfoximine]
inhibitory activity in haematopoietic / leukaemia cell lines (in words) [1]: showed inhibition of the cell proliferation of leukaemia cell lines
effect on metabolic activity of HEL cells (in words) [2]: lost inhibitory activity compared to MF2
effect on metabolic activity of Molm-14 cells (in words) [3]: lost inhibitory activity compared to MF2

Structure (SMILES): CN1Cc2cc(N=S(C)(=O)c3ccccc3)ccc2NC1=O (racemic) [MF2, rac-N-(3-methyl-2-oxo-1,2,3,4-tetrahydroquinazolin-6-yl)-S-methyl-S-phenylsulfoximine]
inhibitory activity in haematopoietic / leukaemia cell lines (in words) [1]: marked inhibitory activity
activity relative to PFI-1 in haematopoietic cell lines [1]: at a comparable level to PFI-1
effect on metabolic activity of HEL cells (in words) [2]: reduced the metabolic activity of HEL and Molm-14 cells at concentrations of 10 and 20 μM
effect on metabolic activity of Molm-14 cells (in words) [3]: reduced the metabolic activity of HEL and Molm-14 cells at concentrations of 10 and 20 μM

Structure (SMILES): CN=S(C)(=Nc1ccc2c(c1)CN(C)C(=O)N2)c1ccccc1 (racemic) [JHS3, rac-N-(3-methyl-2-oxo-1,2,3,4-tetrahydroquinazolin-6-yl)-N-methyl-S-methyl-S-phenylsulfonediimide]
inhibitory activity in haematopoietic / leukaemia cell lines (in words) [1]: minor inhibitory activity
effect on metabolic activity of HEL cells (in words) [2]: inactive
effect on metabolic activity of Molm-14 cells (in words) [3]: inactive

Structure (SMILES): CN1Cc2cc(N=[S@](C)(=Nc3ccccc3)c3ccccc3)ccc2NC1=O [JHS1-S, (S)—N-(3-methyl-2-oxo-1,2,3,4-tetrahydroquinazolin-6-yl)-N-phenyl-S-methyl-S-phenylsulfonediimide]
effect on metabolic activity of HEL cells (in words) [2]: comparable effect on the metabolic activity
effect on metabolic activity of Molm-14 cells (in words) [3]: comparable effect on the metabolic activity

Structure (SMILES): CN1Cc2cc(N=S(C)(=Nc3ccccc3)c3ccccc3)ccc2NC1=O (racemic) [JHS1, rac-N-(3-methyl-2-oxo-1,2,3,4-tetrahydroquinazolin-6-yl)-N-phenyl-S-methyl-S-phenylsulfonediimide]
effect on metabolic activity of HEL cells (in words) [2]: reduced the metabolic activity of HEL and Molm-14 cells at concentrations of 10 and 20 μM; also recorded: achieved inhibition of the metabolic activity of HEL and Molm-14 cells at concentrations of 10 and 20 μM
effect on metabolic activity of Molm-14 cells (in words) [3]: reduced the metabolic activity of HEL and Molm-14 cells at concentrations of 10 and 20 μM; also recorded: achieved inhibition of the metabolic activity of HEL and Molm-14 cells at concentrations of 10 and 20 μM

Structure (SMILES): CN1Cc2cc(N=S(=O)(c3ccccc3)c3ccccc3)ccc2NC1=O [MF3, N-(3-methyl-2-oxo-1,2,3,4-tetrahydroquinazolin-6-yl)-S,S-diphenylsulfoximine]
inhibitory activity in haematopoietic / leukaemia cell lines (in words) [1]: marked inhibitory activity
activity relative to PFI-1 in haematopoietic cell lines [1]: at a comparable level to PFI-1

binding of BRD2 (ΔTm, in words) [5]: stronger binding of BRD2
Structure (SMILES): COc1ccccc1S(=O)(=O)Nc1ccc2c(c1)CN(C)C(=O)N2 [PFI-1, reference compound]
binding of BET family proteins (ΔTm, in words) [4]: specifically bind proteins of the BET family
metabolic activity of HEL cells ([2]; 1 μM, DMSO control set to 100%): 72.95%±12.7
colony count, healthy CD34+ controls 3 and 4 ([6]; 1 μM): reduced the colony count of the controls to a lesser degree
colony count, healthy controls 1 (PBMC) and 2 (CD34+ cells) ([6]; 5 μM): likewise reduced the amount of colonies
metabolic activity of Molm-14 cells ([3]; 1 μM, DMSO control set to 100%): 80.43%±1.324

Structure (SMILES): COc1ccccc1[S@@](C)(=O)=Nc1ccc2c(c1)CN(C)C(=O)N2 [MF1-R, (R)—N-(3-methyl-2-oxo-1,2,3,4-tetrahydroquinazolin-6-yl)-S-(2-methoxyphenyl)-S-methylsulfoximine]
inhibitory activity in haematopoietic / leukaemia cell lines (in words) [1]: minor inhibitory effect
effect on metabolic activity of HEL cells (in words) [2]: virtually inactive
effect on metabolic activity of Molm-14 cells (in words) [3]: virtually inactive

Structure (SMILES): COc1ccccc1[S@](C)(=O)=Nc1ccc2c(c1)CN(C)C(=O)N2 [MF1-S, (S)—N-(3-methyl-2-oxo-1,2,3,4-tetrahydroquinazolin-6-yl)-S-(2-methoxyphenyl)-S-methylsulfoximine]
effect on metabolic activity of HEL cells (in words) [2]: comparable effect on the metabolic activity of HEL and Molm-14 cells to PFI-1
effect on metabolic activity of Molm-14 cells (in words) [3]: comparable effect on the metabolic activity of HEL and Molm-14 cells to PFI-1

Structure (SMILES): CN1Cc2cc(N=[S@@](C)(=Nc3ccccc3)c3ccccc3)ccc2NC1=O [JHS1-R, (R)—N-(3-methyl-2-oxo-1,2,3,4-tetrahydroquinazolin-6-yl)-N′-phenyl-S-methyl-S-phenylsulfonediimide]
inhibitory activity in haematopoietic / leukaemia cell lines (in words) [1]: almost the same level of inhibitory action
